This note sets out measurements from ChEMBL document CHEMBL1140325, “Discovery of high-affinity ligands of sigma1 receptor, ERG2, and emopamil binding protein by pharmacophore modeling and virtual screening” (J Med Chem, 2005).

Assay [1] deals with 3-beta-hydroxysteroid-Delta(8),Delta(7)-isomerase (Homo sapiens, UniProt Q15125). The assay can be described thus: Affinity for human EMP expressed in ERG2 deficient strain of Saccharomyces cerevisiae using [3H]ifenprodil or (+)-[3H]pentazocine as radioligand.
Sequence of 3-beta-hydroxysteroid-Delta(8),Delta(7)-isomerase (Q15125 whole entry): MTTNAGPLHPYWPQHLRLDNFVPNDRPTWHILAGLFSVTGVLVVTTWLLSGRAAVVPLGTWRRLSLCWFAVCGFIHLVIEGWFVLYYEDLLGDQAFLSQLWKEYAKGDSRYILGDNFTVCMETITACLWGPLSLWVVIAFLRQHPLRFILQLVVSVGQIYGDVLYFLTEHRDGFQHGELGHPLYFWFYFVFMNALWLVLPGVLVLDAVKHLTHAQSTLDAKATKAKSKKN
For assay [2], the target named is C-8 sterol isomerase ERG2 (Saccharomyces cerevisiae S288c, UniProt P32352). Nature of the assay: Affinity for ERG2 of Saccharomyces cerevisiae using [3H]ifenprodil or (+)-[3H]pentazocine radioligand.
Sequence of C-8 sterol isomerase ERG2 (P32352 whole entry): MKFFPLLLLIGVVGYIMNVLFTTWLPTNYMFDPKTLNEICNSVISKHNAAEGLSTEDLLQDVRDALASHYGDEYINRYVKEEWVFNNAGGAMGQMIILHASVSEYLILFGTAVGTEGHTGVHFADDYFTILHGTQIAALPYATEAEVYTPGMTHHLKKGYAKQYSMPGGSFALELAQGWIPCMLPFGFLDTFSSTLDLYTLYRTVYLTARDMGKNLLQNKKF

Consider `CC(C)[C@@](C#N)(CCCN(C)CCc1ccccc1)c1ccccc1` [LEVEMOPAMIL], for which the values for the Ki in assay [1] and in assay [2] (read-out: Ki) were 18 nM and 74 nM, respectively.

On to `CCCCCCCCCCCCC(C#N)(CCCN(C)CCc1ccccc1)c1ccccc1` (stereo not given) [RONIPAMIL], for which the Ki was 2 nM in assay [1] and 13 nM in assay [2] (read-out: Ki).

For `CCN(CC)CCO[C@H]1CC[C@@]2(C)C(=CC[C@@H]3[C@@H]2CC[C@]2(C)C(=O)CC[C@@H]32)C1`, the Ki in assay [1] was determined as 2 nM; in assay [2] (read-out: Ki) it was 0.2 nM.

For the molecule `C[C@]12C[C@H](O)[C@H]3[C@@H](CCC4=CC(=O)CC[C@@]43C)[C@@H]1CC[C@@H]2C(=O)CO` [CORTICOSTERONE], the Ki in assay [1] and in assay [2] (read-out: Ki) was greater than 100000 nM each time.

In the case of `O=C(c1ccc(OCCN2CCCCC2)cc1)c1c(-c2ccc(O)cc2)sc2cc(O)ccc12` [RALOXIFENE], the results for the Ki in assay [1] and in assay [2] (read-out: Ki) were 1 nM and 66 nM, respectively.

Consider `CCCN1CCC[C@H](c2cccc(O)c2)C1`, for which the Ki is 2200 nM in assay [1] and 1200 nM in assay [2] (read-out: Ki).

For the molecule `O=C(CCCN1CCC(O)(c2ccc(Cl)cc2)CC1)c1ccc(F)cc1` [HALOPERIDOL], the Ki was 190 nM in assay [1] and 0.5 nM in assay [2] (read-out: Ki).

As to `CCN(CC)CCOc1ccc(/C(=C(\Cl)c2ccccc2)c2ccccc2)cc1` [ZUCLOMIPHENE], the Ki in assay [1] and in assay [2] (read-out: Ki) was 2 nM in each case.

On to `Cc1ccccc1NC(=N)Nc1ccccc1C` [DITOLYLGUANIDINE], for which the values for the Ki in assay [1] and in assay [2] (read-out: Ki) were 6700 nM and 2000 nM, respectively.

Regarding `OCCN1CCN(CCCN2c3ccccc3C=Cc3ccccc32)CC1` [OPIPRAMOL], the results for the Ki in assay [1] and in assay [2] (read-out: Ki) were 13 nM and 17 nM, respectively.

In the case of `C[C@]12CC[C@H]3[C@@H](CCC4=CC(=O)CC[C@@]43C)[C@@H]1CC[C@@H]2O` [TESTOSTERONE], the inhibitory constant (Ki) in assay [1] was greater than 100000 nM; in assay [2] (read-out: Ki), 7760 nM.

With `CC(C)=CCN1CC[C@@]2(C)c3cc(O)ccc3CC1[C@H]2C`, the Ki is 500 nM in assay [1] and 1000 nM in assay [2] (read-out: Ki).

Regarding `CC(=O)[C@H]1CC[C@H]2[C@@H]3CCC4=CC(=O)CC[C@]4(C)[C@H]3CC[C@]12C` [PROGESTERONE], the Ki in assay [1] is greater than 100000 nM; in assay [2] (read-out: Ki), 4430 nM.

With `CCCCCCCOc1ccccc1NC(=O)OC(C)CN(CC)CC` (stereo not given), the results for the Ki in assay [1] and in assay [2] (read-out: Ki) were 51 nM and 2800 nM, respectively.

On to `CCCCCCCCCCCCCN1C[C@@H](C)O[C@@H](C)C1`, for which the Ki in assay [1] is 1 nM; in assay [2] (read-out: Ki) it was 0.09 nM.

Regarding `COc1cc(OC)c(C(=O)CCCN2CCCC2)c(OC)c1` [BUFLOMEDIL], the Ki worked out at 60 nM in assay [1] and 7150 nM in assay [2] (read-out: Ki).

On to `CC(Cc1ccc(C(C)(C)C)cc1)CN1C[C@@H](C)O[C@@H](C)C1` (stereo not given in full) [FENPROPIMORPH], for which the Ki in assay [1] worked out at 30 nM; in assay [2] (read-out: Ki) it was 0.05 nM.

Consider `CC1CC[C@@]2(NC1)O[C@H]1C[C@H]3[C@@H]4CC=C5C[C@@H](O)CC[C@]5(C)[C@H]4CC[C@]3(C)[C@H]1[C@@H]2C` (stereo not given in full), for which the Ki in assay [1] is greater than 100000 nM; in assay [2] (read-out: Ki) it was 1170 nM.

`CN(c1nc2ccccc2s1)C1CCN(CCCCOc2ccccc2)C1` (stereo not given): the values for the Ki in assay [1] and in assay [2] (read-out: Ki) were 450 nM and 169 nM, respectively.

On to `N=C(NCCSC(c1ccccc1)c1ccccc1)NCCc1cnc[nH]1`, for which the Ki in assay [1] was found to be 39 nM; in assay [2] (read-out: Ki), 170 nM.

In the case of `C[C@H]1CCC2[C@@H](C)[C@H]3[C@H](C[C@H]4C5CC=C6C[C@@H](O)CC[C@]6(C)[C@H]5CC[C@]34C)N2C1` (single isomer, unassigned), the Ki was 441 nM in assay [1] and greater than 100000 nM in assay [2] (read-out: Ki).

On to `O=C(O)c1ccc(CCN2CCN(C/C=C/c3ccc(Cl)cc3)CC2)cc1`, for which the Ki in assay [1] was determined as 34000 nM; in assay [2] (read-out: Ki) it was 16500 nM.

Consider `CN1CCN(CCCN2c3ccccc3Sc3ccc(C(F)(F)F)cc32)CC1` [TRIFLUOPERAZINE], for which the Ki in assay [1] worked out at 8 nM; in assay [2] (read-out: Ki) it was 500 nM.

For `CN(C/C=C/C#CC(C)(C)C)Cc1cccc2ccccc12` [TERBINAFINE], the Ki in assay [1] and in assay [2] (read-out: Ki) was greater than 50000 nM in each case.

In the case of `CCCCN1CCC2(CCCc3ccccc32)CC1`, the Ki in assay [1] was determined as 1 nM; in assay [2] (read-out: Ki) it was 5 nM.

Consider `C[C@H]([C@@H](O)c1ccc(O)cc1)N1CCC(Cc2ccccc2)CC1` [(S,R)-IFENPRODIL], for which the Ki in assay [2] (read-out: Ki) was 1 nM.

Consider `CC1CC[C@]2(NC1)O[C@H]1C[C@H]3[C@@H]4CC[C@H]5C[C@@H](O)CC[C@]5(C)[C@H]4CC[C@]3(C)[C@H]1[C@@H]2C` (stereo not given in full), for which the Ki in assay [1] was determined as 583 nM; in assay [2] (read-out: Ki) it was 387 nM.

For the molecule `CCN(CC)CCOc1ccc(C(O)(Cc2ccc(Cl)cc2)c2ccc(C)cc2)cc1` (stereo not given) [TRIPARANOL], the Ki in assay [1] was 11 nM; in assay [2] (read-out: Ki), 2 nM.

In the case of `CC/C(=C(/CC)c1ccc(OCCN(CC)CC)cc1)c1ccc(OCCN(CC)CC)cc1`, the Ki in assay [1] was determined as 54 nM; in assay [2] (read-out: Ki), 0.7 nM.

As to `CN(C/C=C/c1ccccc1)Cc1cccc2ccccc12` [NAFTIFINE], the Ki is 1500 nM in assay [1] and 310 nM in assay [2] (read-out: Ki).

Molecule `CC/C(=C(\c1ccccc1)c1ccc(OCCN(C)C)cc1)c1ccccc1` [TAMOXIFEN] showed a Ki in assay [2] of 1500 nM.

For `N=C(NCc1ccccc1)Nc1nc(-c2cc3ccccc3[nH]2)cs1`, the figures for the Ki in assay [1] and in assay [2] (read-out: Ki) were 8500 nM and 31700 nM, respectively.

Turning to `C=CCN1CC[C@@]2(C)c3cc(O)ccc3CC1[C@H]2C`, the Ki is 9300 nM in assay [1] and 4700 nM in assay [2] (read-out: Ki).

As for `CC1=C2C(=O)[C@H]3[C@@H](CC=C4C[C@@H](O)CC[C@@]43C)[C@@H]2CC[C@]12O[C@@H]1C[C@H](C)CN[C@H]1[C@H]2C` [JERVINE], the Ki in assay [1] is greater than 100000 nM; in assay [2] (read-out: Ki) it was 284 nM.

For the molecule `O=C(CCCN1CCC(O)(c2cccc(C(F)(F)F)c2)CC1)c1ccc(F)cc1` [TRIFLUPERIDOL], the Ki worked out at 165 nM in assay [1] and 0.15 nM in assay [2] (read-out: Ki).

For the molecule `CC(C)CCCC(C)CCCC(C)N1CC[C@H]2[C@H](C)[C@@H](O)CC[C@]2(C)C1` (stereo not given in full), the Ki in assay [1] stood at 0.6 nM; in assay [2] (read-out: Ki), 0.4 nM.

Take `CCN(C/C=C/c1ccc(C2CCCCC2)c(Cl)c1)C1CCCCC1`: the Ki in assay [1] was found to be 3 nM; in assay [2] (read-out: Ki) it was 9 nM.

As for `CC1=C2C[C@H]3[C@@H](CC=C4C[C@@H](O)CC[C@@]43C)[C@@H]2CC[C@]12O[C@]1(C)C[C@H](C)CN[C@H]1[C@H]2C`, the Ki in assay [1] stood at 654 nM; in assay [2] (read-out: Ki) it was 500 nM.

`COc1ccc2c(c1)CCC(c1ccccc1)=C2c1ccc(OCCN2CCCC2)cc1` [NAFOXIDINE]: in assay [2] (read-out: Ki), the Ki came out at 232 nM.

Turning to `CCN(CC)CCOc1ccc(/C(=C(/Cl)c2ccccc2)c2ccccc2)cc1` [ENCLOMIPHENE], the Ki in assay [1] came out at 1 nM; in assay [2] (read-out: Ki) it was 160 nM.

Regarding `CC(C)[C@](C#N)(CCCN(C)CCc1ccccc1)c1ccccc1`, the Ki in assay [1] came out at 6 nM; in assay [2] (read-out: Ki), 65 nM.

`CCCN(CCC)CCc1ccc(OC)c(OCCc2ccccc2)c1` yielded a Ki in assay [1] of 15 nM.
